Values belong to the compound of their own block, whether it stands above or below them.
Columns and labels:
[1] = system: Caco-2 monolayers; assay: TEER measurement of tight junction integrity in Caco-2 monolayers; assay type: cell-based, Human; conditions: inhibitor pre-incubated 30 min; for effect of inhibitor on 600-HPTChC65-mediated TEER reduction / tight junction opening: 0.005% (w/v) 600-HPTChC65, 2-h treatment; for effect of inhibitor on chitosan-mediated TEER reduction / tight junction opening: 0.005% (w/v) 600 kDa chitosan, 2-h treatment
Description: Human colon adenocarcinoma Caco-2 cell line was obtained from the American Type Culture Collection (Manassas, VA, USA). The cells were maintained in complete medium (CM; Dulbeco's modified Eagle's medium supplemented with 10% (v/v) fetal bovine serum, 100 units/mL penicillin, 100 µg/mL streptomycin, 1% (v/v) non-essential amino acids and 2 mM L-glutamine) at 37 °C in a humidified atmosphere of 5% CO2. Cells were grown at a density of 6 × 10^4 and 1.5 × 10^5 cells/cm^2 on a transwell insert (0.4 µm pore size; Corning Life Sciences, Tewksbury, MA, USA) for 21 days and 14 days in paracellular and transcellular experiments, respectively. At the start of each experiment, the integrity of the Caco-2 monolayer was assessed by measurement of the transepithelial electrical resistance (TEER), using a chopstick-like electrode connected to a Millicell-ERS® (Millipore, Bedford, MA, USA). Cell monolayers with a TEER value of greater than 300 Ω cm^2 were used in each experiment.
The 21 day-aged Caco-2 monolayers were incubated with transport buffers, i.e., 10 mM MES-HBSS, pH 6.5 on the apical side (the donor compartment) and 25 mM HEPES-HBSS, pH 7.4 on the basolateral side (the receiver compartment) for 30 min at 37 °C. Subsequently, the test chitosan in 1% (w/v) acetic acid was added to the apical side and incubated at 37 °C on an orbital shaker for 4 h. To investigate the tight junction signaling pathway, the monolayers were incubated with either ML-7, RO-318220 or genistein for 30 min at 37 °C prior to addition of the test chitosan. The TEER values were monitored at the indicated time points during the treatment period.
For the measurement of tight junction recovery, each monolayer was incubated with the test chitosan for 1 h prior to replacement with CM for another 24 h in a CO2 incubator at 37 °C. The TEER value was measured at the indicated time points during the 24-h chitosan withdrawal period.

[2] = target: recombinant human P-gp membranes (Homo sapiens, UniProt P08183)
Chain of recombinant human P-gp membranes (P08183 whole entry): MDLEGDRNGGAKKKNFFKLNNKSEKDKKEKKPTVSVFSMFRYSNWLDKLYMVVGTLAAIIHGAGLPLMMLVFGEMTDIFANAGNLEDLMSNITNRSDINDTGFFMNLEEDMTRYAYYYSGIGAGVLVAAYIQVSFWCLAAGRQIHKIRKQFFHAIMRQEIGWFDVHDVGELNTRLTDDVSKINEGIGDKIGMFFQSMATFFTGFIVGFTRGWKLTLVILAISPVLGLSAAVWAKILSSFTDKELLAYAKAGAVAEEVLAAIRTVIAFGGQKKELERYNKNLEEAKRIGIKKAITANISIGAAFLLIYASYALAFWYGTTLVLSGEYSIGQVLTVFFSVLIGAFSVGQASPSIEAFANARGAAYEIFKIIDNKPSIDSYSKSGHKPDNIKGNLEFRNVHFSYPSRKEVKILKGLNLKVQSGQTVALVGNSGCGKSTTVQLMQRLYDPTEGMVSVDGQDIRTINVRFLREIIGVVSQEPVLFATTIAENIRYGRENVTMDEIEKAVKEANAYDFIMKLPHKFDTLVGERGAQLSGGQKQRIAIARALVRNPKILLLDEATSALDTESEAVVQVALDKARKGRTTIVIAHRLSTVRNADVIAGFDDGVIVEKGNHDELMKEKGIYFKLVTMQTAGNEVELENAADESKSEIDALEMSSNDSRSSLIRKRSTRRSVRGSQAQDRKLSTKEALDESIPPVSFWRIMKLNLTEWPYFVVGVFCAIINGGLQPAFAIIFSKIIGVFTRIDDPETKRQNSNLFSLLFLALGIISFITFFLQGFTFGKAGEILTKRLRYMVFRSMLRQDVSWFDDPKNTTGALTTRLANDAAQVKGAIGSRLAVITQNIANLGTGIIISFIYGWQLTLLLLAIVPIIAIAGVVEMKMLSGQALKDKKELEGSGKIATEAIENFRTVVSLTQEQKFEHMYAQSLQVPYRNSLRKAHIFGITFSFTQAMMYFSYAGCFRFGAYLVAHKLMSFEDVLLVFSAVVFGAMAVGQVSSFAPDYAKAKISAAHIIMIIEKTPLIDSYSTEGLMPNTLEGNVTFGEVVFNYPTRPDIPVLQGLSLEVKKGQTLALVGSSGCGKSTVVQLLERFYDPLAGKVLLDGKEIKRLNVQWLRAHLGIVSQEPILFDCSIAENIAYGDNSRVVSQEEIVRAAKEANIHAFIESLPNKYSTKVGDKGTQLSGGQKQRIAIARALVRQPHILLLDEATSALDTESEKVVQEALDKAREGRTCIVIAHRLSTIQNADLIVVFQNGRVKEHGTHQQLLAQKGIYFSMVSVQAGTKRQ
Description: Effect of 600-HPTChC65 on P-gp ATPase activity was determined in recombinant human P-gp membranes with the use of the P-gp-Glo™ assay (Promega, Madison, Wisconsin), according to the manufacturer’s instruction.

Compound: O=S(=O)(c1cccc2c(I)cccc12)N1CCCNCC1 [ML-7]
- effect of inhibitor on 600-HPTChC65-mediated TEER reduction / tight junction opening [1]: did not prevent
- effect of inhibitor on chitosan-mediated TEER reduction / tight junction opening [1]: partially prevent

Compound: Cn1cc(C2=C(c3cn(CCCSC(=N)N)c4ccccc34)C(=O)NC2=O)c2ccccc21 [RO-318220]
- effect of inhibitor on 600-HPTChC65-mediated TEER reduction / tight junction opening [1]: did not prevent
- effect of inhibitor on chitosan-mediated TEER reduction / tight junction opening [1]: no significant effect

Compound: O=c1c(-c2ccc(O)cc2)coc2cc(O)cc(O)c12 [genistein]
- effect of inhibitor on 600-HPTChC65-mediated TEER reduction / tight junction opening [1]: did not prevent
- effect of inhibitor on chitosan-mediated TEER reduction / tight junction opening [1]: no significant effect

- P-gp ATPase activity (change in luminescence signal) [2]: increased ATPase activity
Compound: N-(2-hydroxypropyl)-3-trimethylammonium chitosan chloride [600-HPTChC65]

Source: publication PMC10188607, “Quaternization of high molecular weight chitosan for increasing intestinal drug absorption using Caco-2 cells as an in vitro intestinal model” (Scientific Reports, 2023)
